Patent publication US20120035177A1, “TABLET FORMULATION FOR P38 INHIBITOR AND METHOD” (Bristol-Myers Squibb Company, priority 2009, published 2012)

Assay: Physical stability upon storage
Type: physicochemical
Conditions: drug substance; room temperature without need for refrigeration

physical stability upon storage: good physical stability
Compound: CCCNC(=O)c1cn2c(c1C)C(Nc1cc(C(=O)NC3CC3)ccc1C)=NCN2.Cl [p38 inhibitor]
